Experiments:
PARP-1 enzyme [1] = target: T1, PARP-1 enzyme (Homo sapiens, UniProt P09874); assay: In vitro filtration assay for PARP-1 inhibitory activity; format: biochemical; settings: nicked DNA activated PARP-1, [32P]-NAD, histones; read-out: In vitro filtration assay pIC50 (converted)
T1 construct: made in house
Protocol: In Vitro Filtration Assay for PARP-1 Inhibitory Activity
Compounds of the present invention were tested in an in vitro filtration assay assessing PARP-1 activity (triggered in the presence of nicked DNA) by means of its histone poly (ADP-ribosyl)ation activity using [^32P]-NAD as ADP-ribosyl donor. The radioactive ribosylated histones were precipitated by trichloroacetic acid (TCA) in 96-well filterplates and the incorporated [^32P] measured using a scintillation counter A mixture of histones (stock solution: 5 mg/ml in H2O), NAD^+ (stock solution: 100 mM in H2O), and [^32P]-NAD^+ in incubation buffer (50 mM Tris/HCl, pH 8; 0.2 mM DTT; 4 mM MgCl2) was made. A mixture of the PARP-1 enzyme (5-10 μg/ml) and nicked DNA was also made. The nicked DNA was prepared as described in the in vitro SPA for PARP-1 inhibitory activity. Seventy-five μl of the PARP-1 enzyme/DNA mixture together with 1 μl of compound in DMSO and 25 μl of histones-NAD^+/[^32P]-NAD^+ mixture was added per well of a 96-well filterplate (0.45 μm, supplier Millipore). The final concentrations in the incubation mixture were 2 μg/ml for the histones, 0.1 mM for the NAD^+, 200 μM (0.5 μC) for the [^32P]-NAD^+ and 2 μg/ml for the nicked DNA. Plates were incubated for 15 min. at room temperature and the reaction was terminated by the addition of 10 μl ice cold 100% TCA followed by the addition of 10 μl ice-cold BSA solution (1% in H2O). The protein fraction was allowed to precipitate for 10 min. at 4° C. and plates were vacuum filtered. The plates were subsequently washed with, for each well, 1 ml of 10% ice cold TCA, 1 ml of 5% ice cold TCA and 1 ml of 5% TCA at room temperature. Finally 100 μl of scintillation solution (Microscint 40, Packard) was added to each well and the plates were transferred to a TopCountNXT™ (supplier: Packard) for scintillation counting and values were expressed as counts per minute (cpm). For each experiment, controls (containing PARP-1 enzyme and DMSO without compound), a blank incubation (containing DMSO but no PARP-1 enzyme or compound) and samples (containing PARP-1 enzyme and compound dissolved in DMSO) were run in parallel. All compounds tested were dissolved and eventually further diluted in DMSO. In first instance, compounds were tested at a concentration of 10^−5M. […] In each test, the blank value was subtracted from both the control and the sample values. The control sample represented maximal PARP-1 enzyme activity. For each sample, the amount of cpm was expressed as a percentage of the mean cpm value of the controls. When appropriate, IC50-values (concentration of the drug, needed to reduce the PARP-1 enzyme activity to 50% of the control) were computed using linear interpolation between the experimental points just above and below the 50% level. Herein the effects of test compounds are expressed as pIC50 (the negative log value of the IC50-value). As a reference compound, 4-amino-1,8-naphthalimide was included to validate the filtration assay.

PARP-1 enzyme [2] = target: T1, PARP-1 enzyme; assay: In vitro Scintillation Proximity Assay (SPA) for PARP-1 inhibitory activity; format: biochemical; settings: nicked DNA activated PARP-1, [3H]-NAD+, biotinylated histones; read-out: In vitro SPA pIC50 (converted)
Protocol: Pharmacological Example In Vitro Scintillation Proximity Assay (SPA) for PARP-1 Inhibitory Activity
Compounds of the present invention were tested in an in vitro assay based on SPA technology (proprietary to Amersham Pharmacia Biotech).
In principle, the assay relies upon the well established SPA technology for the detection of poly(ADP-ribosyl)ation of biotinylated target proteins, i.e histones. This ribosylation is induced using nicked DNA activated PARP-1 enzyme and [^3H]-nicotinamide adenine dinucleotide ([^3H]-NAD^+) as ADP-ribosyl donor.
As inducer of PARP-1 enzyme activity, nicked DNA was prepared. For this, 25 mg of DNA (supplier: Sigma) was dissolved in 25 ml DNAse buffer (10 mM Tris-HCl, pH 7.4; 0.5 mg/ml Bovine Serum Albumine (BSA); 5 mM MgCl2.6H2O and 1 mM KCl) to which 50 μl DNAse solution (1 mg/ml in 0.15 M NaCl) was added. After an incubation of 90 min. at 37° C., the reaction was terminated by adding 1.45 g NaCl, followed by a further incubation at 58° C. for 15 min. The reaction mixture was cooled on ice and dialysed at 4° C. for respectively 1.5 and 2 hours against 1.5 l of 0.2 M KCl, and twice against 1.5 l of 0.01 M KCl for 1.5 and 2 h respectively. The mixture was aliquoted and stored at −20° C. Histones (1 mg/ml, type II-A, supplier: Sigma) were biotinylated using the biotinylation kit of Amersham and stored aliquoted at −20° C. A stock solution of 100 mg/ml SPA poly(vinyl toluene) (PVT) beads (supplier: Amersham) was made in PBS. A stock solution of [^3H]-NAD^+ was made by adding 120 μl of [^3H]-NAD^+ (0.1 mCi/ml, supplier: NEN) to 6 ml incubation buffer (50 mM Tris/HCl, pH 8; 0.2 mM DTT; 4 mM MgCl2). A solution of 4 mM NAD^+ (supplier: Roche) was made in incubation buffer (from a 100 mM stock solution in water stored at −20° C.). The PARP-1 enzyme was produced using art known techniques, i.e. cloning and expression of the protein starting from human liver cDNA. Information concerning the used protein sequence of the PARP-1 enzyme including literature references can be found in the Swiss-Prot database under primary accession number P09874. Biotinylated histones and PVT-SPA beads were mixed and pre-incubated for 30 min. at room temperature. PARP-1 enzyme (concentration was lot dependent) was mixed with the nicked DNA and the mixture was pre-incubated for 30 min. at 4° C. Equal parts of this histones/PVT-SPA beads solution and PARP-1 enzyme/DNA solution were mixed and 75 μl of this mixture together with 1 μl of compound in DMSO and 25 μl of [^3H]-NAD^+ was added per well into a 96-well microtiterplate. The final concentrations in the incubation mixture were 2 μg/ml for the biotinylated histones, 2 mg/ml for the PVT-SPA beads, 2 μg/ml for the nicked DNA and between 5-10 μg/ml for the PARP-1 enzyme. After incubation of the mixture for 15 min. at room temperature, the reaction was terminated by adding 100 μl of 4 mM NAD^+ in incubation buffer (final concentration 2 mM) and plates were mixed.
The beads were allowed to sediment for at least 15 min. and plates transferred to a TopCountNXT™ (Packard) for scintillation counting, values were expressed as counts per minute (cpm). For each experiment, controls (containing PARP-1 enzyme and DMSO without compound), a blank incubation (containing DMSO but no PARP-1 enzyme or compound) and samples (containing PARP-1 enzyme and compound dissolved in DMSO) were run in parallel. All compounds tested were dissolved and eventually further diluted in DMSO. […] In each test, the blank value was subtracted from both the control and the sample values. The control sample represented maximal PARP-1 enzyme activity. For each sample, the amount of cpm was expressed as a percentage of the mean cpm value of the controls. When appropriate, IC50-values (concentration of the drug, needed to reduce the PARP-1 enzyme activity to 50% of the control) were computed using linear interpolation between the experimental points just above and below the 50% level. […]

T1 sequence (P09874 whole entry): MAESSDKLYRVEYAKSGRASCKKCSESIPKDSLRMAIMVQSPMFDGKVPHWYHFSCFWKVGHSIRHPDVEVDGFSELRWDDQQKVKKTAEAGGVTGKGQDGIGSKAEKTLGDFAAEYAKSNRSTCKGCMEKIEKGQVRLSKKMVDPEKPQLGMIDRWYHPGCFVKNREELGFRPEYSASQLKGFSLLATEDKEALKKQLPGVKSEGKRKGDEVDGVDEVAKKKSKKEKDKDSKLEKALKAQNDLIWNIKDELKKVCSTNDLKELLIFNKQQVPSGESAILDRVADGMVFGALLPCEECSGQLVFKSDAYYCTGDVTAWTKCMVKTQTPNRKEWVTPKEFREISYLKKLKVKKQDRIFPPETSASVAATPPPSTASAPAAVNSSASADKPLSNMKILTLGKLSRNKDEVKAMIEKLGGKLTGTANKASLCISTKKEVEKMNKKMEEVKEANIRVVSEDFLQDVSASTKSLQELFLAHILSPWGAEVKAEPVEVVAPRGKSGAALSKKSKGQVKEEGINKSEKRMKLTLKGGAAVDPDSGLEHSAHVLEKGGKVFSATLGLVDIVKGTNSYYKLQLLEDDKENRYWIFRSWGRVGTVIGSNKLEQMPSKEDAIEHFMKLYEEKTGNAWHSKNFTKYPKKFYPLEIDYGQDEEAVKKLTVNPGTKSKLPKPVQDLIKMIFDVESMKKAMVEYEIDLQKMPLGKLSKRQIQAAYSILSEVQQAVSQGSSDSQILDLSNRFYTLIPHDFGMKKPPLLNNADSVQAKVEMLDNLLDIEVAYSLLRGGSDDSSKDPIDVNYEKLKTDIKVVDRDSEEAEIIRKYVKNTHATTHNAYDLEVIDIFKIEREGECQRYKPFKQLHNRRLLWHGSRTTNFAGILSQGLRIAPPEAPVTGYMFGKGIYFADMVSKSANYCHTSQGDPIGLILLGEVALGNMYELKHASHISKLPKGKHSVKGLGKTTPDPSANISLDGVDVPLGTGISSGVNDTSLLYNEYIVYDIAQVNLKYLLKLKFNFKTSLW

Structure (SMILES) | IC50 (PARP-1 enzyme [1]) | IC50 (PARP-1 enzyme [2]) | melting point
CCc1cc2cc(C(OCCN(C)C)C3CCCCC3)ccc2[nH]c1=O (stereo not drawn) [Co. No. 8] | 6730 nM | 873 nM | 122 °C
CCc1cc2cc([C@@H](OCCN(C)C)C3CCCCC3)ccc2[nH]c1=O [Co. No. 9] | 4380 nM | 614 nM | 115 °C
CCc1cc2cc(C(C3CCCCC3)N3CCC(O)(c4cncn4C)CC3)ccc2[nH]c1=O (stereo not drawn) [Co. No. 6] | 1350 nM | 508 nM | 194 °C
CCc1cc2cc(C(C3CCCCCC3)N3CCC(=O)CC3)ccc2[nH]c1=O (stereo not drawn) [Co. No. 2] | 568 nM | 232 nM | 218 °C
CCc1cc2cc(C(O)CN3CCCCC3)ccc2[nH]c1=O (stereo not drawn) [Co. No. 1] | 349 nM | 329 nM | 172 °C
CCOC(=O)C1CCN(C(C)Cc2ccc3[nH]c(=O)c(CC)nc3c2)CC1 (stereo not drawn) [Co. No. 3] | – | 861 nM | 163 °C
CCc1cc2cc(C(CC(C)C)N3CCC(=O)CC3)ccc2[nH]c1=O (stereo not drawn) [Co. No. 16] | 1840 nM | 230 nM | –
CCc1cc2cc(C(C(CC)CC)N3CCC(=O)CC3)ccc2[nH]c1=O (stereo not drawn) [Co. No. 17] | 2560 nM | 383 nM | –
CCc1cc2cc(C(CCN3CCN(C)CC3)C3CCCCC3)ccc2[nH]c1=O (stereo not drawn) [Co. No. 5] | 5060 nM | 507 nM | 181 °C
CCc1cc2cc(C(OCCN(C)C)C3CCCCC3)ccc2[nH]c1=O (stereo not drawn) [Co. No. 10] | – | > 1000 nM | –
CCc1cc2cc(C(C3CCCCC3)N3CCC4(CC3)CO4)ccc2[nH]c1=O (stereo not drawn) [Co. No. 4] | 1520 nM | 300 nM | 200 °C
CCc1cc2cc(C(c3cccs3)N3CCC(NCCOC)CC3)ccc2[nH]c1=O (stereo not drawn) [Co. No. 12] | 2270 nM | 188 nM | –
CCc1cc2cc(C(O)CN3CCOCC3)ccc2[nH]c1=O (stereo not drawn) [Co. No. 15] | 2540 nM | 288 nM | –
CCc1cc2cc(CN3CCN(Cc4ccccc4)CC3)ccc2[nH]c1=O [Co. No. 7] | – | 94.6 nM | 194 °C
CCc1cc2cc(C(C3CC=CCC3)N3CCC(O)CC3)ccc2[nH]c1=O (stereo not drawn) [Co. No. 11] | 785 nM | 184 nM | 196 °C
CCc1nc2cc(C(C(C)C)N3CCC(=O)CC3)ccc2[nH]c1=O (stereo not drawn) [Co. No. 19] | – | 757 nM | –
CCc1cc2cc(C(NCCOC)C3CCCCC3)ccc2[nH]c1=O (stereo not drawn) [Co. No. 18] | 2990 nM | 750 nM | –
CCc1cc2cc(C(O)CN3CCN(C)CC3)ccc2[nH]c1=O (stereo not drawn) [Co. No. 14] | 1840 nM | 388 nM | –

The remaining lines, values ahead:

IC50 (PARP-1 enzyme [1]) | IC50 (PARP-1 enzyme [2]) | melting point | Structure (SMILES)
1180 nM | 198 nM | – | CCc1cc2cc(C(c3cccnc3)N3CCC(=O)CC3)ccc2[nH]c1=O (stereo not drawn) [Co. No. 22]
4210 nM | 832 nM | – | CCCCC(c1ccc2[nH]c(=O)c(CC)cc2c1)N1CCC(NCCOC)CC1 (stereo not drawn) [Co. No. 33]
3400 nM | 640 nM | – | CCc1cc2cc(C(C3CCCCC3)N3CCC(N4CCOCC4)CC3)ccc2[nH]c1=O (stereo not drawn) [Co. No. 35]
1330 nM | 277 nM | – | CCc1cc2cc(C(C3CC=CCC3)N3CCC(=O)CC3)ccc2[nH]c1=O (stereo not drawn) [Co. No. 24]
– | 902 nM | – | CCc1cc2cc(C(C3CCCCC3)N3CCN(C)CC3)ccc2[nH]c1=O (stereo not drawn) [Co. No. 21]
6010 nM | 1110 nM | – | CCc1cc2cc(C(NCCN(C)C)C3CCCCC3)ccc2[nH]c1=O (stereo not drawn) [Co. No. 25]
5420 nM | 841 nM | – | CCc1cc2cc([C@@H](NCCN(C)C)C3CCCCC3)ccc2[nH]c1=O [Co. No. 29]
2610 nM | 568 nM | – | CCc1cc2cc(C(=O)CN3CCOCC3)ccc2[nH]c1=O [Co. No. 36]
2200 nM | 180 nM | – | CCc1cc2cc(C(O)C3CCN(Cc4ccccc4)CC3)ccc2[nH]c1=O (stereo not drawn) [Co. No. 27]
2430 nM | 853 nM | – | CCc1cc2cc(C(C3CCCCC3)N3CCC(O)CC3)ccc2[nH]c1=O (stereo not drawn) [Co. No. 34]
– | 853 nM | – | CCc1cc2cc(CCN3CCC(NCCOC)CC3)ccc2[nH]c1=O [Co. No. 37]
– | 536 nM | – | CCc1nc2cc(C(C(C)C)N3CCC(c4n[nH]c5cc(F)ccc45)CC3)ccc2[nH]c1=O (stereo not drawn) [Co. No. 26]
1260 nM | 232 nM | – | CCc1cc2cc(C(c3ccsc3)N3CCC(=O)CC3)ccc2[nH]c1=O (stereo not drawn) [Co. No. 23]
1840 nM | 600 nM | – | CCc1cc2cc(C(SCCN(C)C)C3CCCCC3)ccc2[nH]c1=O (stereo not drawn) [Co. No. 20]
9180 nM | 1280 nM | – | CCc1cc2cc([C@@H](C3CCCCC3)N3CCN(CCOC)CC3)ccc2[nH]c1=O [Co. No. 30]
2830 nM | 196 nM | – | CCc1cc2cc(C(c3ccsc3)N3CCC(NCCOC)CC3)ccc2[nH]c1=O (stereo not drawn) [Co. No. 32]
3150 nM | 288 nM | – | CCc1cc2cc(C(O)C3CCCCC3)ccc2[nH]c1=O (stereo not drawn) [Co. No. 28]
8260 nM | 863 nM | – | CCc1cc2cc(C(C3CCCCC3)N3CCC(NCc4cccnc4)CC3)ccc2[nH]c1=O (stereo not drawn) [Co. No. 31]

— patent publication US7652014B2, “Substituted 6-cyclohexylalkyl substituted 2-quinolinones and 2-quinoxalinones as poly(ADP-ribose) polymerase inhibitors” (Janssen Pharmaceutica, priority 2003, dated 2010)
